Laboratory results published in patent EP4431090A1, “SOLFONAMIDES ACTING AS MITOCHONDRIAL COMPLEX I MODULATOR COMPOUNDS” (Istesso 1 Limited, priority 2023, dated 2024).
Values joined by “and” are separate entries in the source; they are usually repeats but may differ in a detail not shown here. Equal entries are not always repeated. Marks after values point to notes of the source that are not given here.

Experiments:
[1] = test system: collagen-induced arthritis; experiment: Mouse collagen-induced arthritis; type: in vivo, DBA/1j mice
[2] = test system: bleomycin-induced lung fibrosis; experiment: Mouse bleomycin-induced lung fibrosis; type: in vivo, C57BI/6 mice; conditions: scale 0-5, Dose (mg/kg/day): Nintedanib 30 b.d., HMC-C-01-A 10 q.d., mean ± s.e.m.
Method: Eight- to ten-week-old female C57BI/6 mice were used for all procedures. Animals were housed in groups of 4 and were maintained at 22°C ± 3°C on a 12-hour light/dark cycle with food and water ad libitum. Bleomycin was prepared by dissolving in saline at 1.5 mg/mL. All mice were administered intranasally with 3 mg/kg bleomycin. Seven days after bleomycin administration, vehicle control, nintedanib or MCIM compound administration was initiated. Nintedanib was administered twice daily (b.d.) by oral gavage at a total daily dose of 30 mg/kg/day for 14 days. MCIM compounds were administered once daily (q.d.) by oral gavage at a total daily dose of either 10 or 20 mg/kg/day for 14 days.
On the 14th day, lungs were collected after perfusion. The left lung lobe was assessed for fibrosis by measuring total lung hydroxyproline levels. The right lung lobes were fixed and sectioned for histopathology. […]
The data were analysed by generating an average histopathology score across each treatment group. […]

[3] = test system: human primary lung fibroblasts; experiment: Cell proliferation (BrdU incorporation, nucleus counts) with compound washout; type: cell-based; conditions: for cell proliferation (BRdU incorporation and nucleus counts): pyruvate-restricted conditions, 24-hours compound treatment; for recovery of cell proliferation after compound washout (BrdU incorporation and nucleus counts): 24-hours incubation in pyruvate-free media, highest tested concentration
Method: Human primary lung fibroblasts were plated at a concentration of 5 × 10^3 cells/well in 96well plates in 100 µL DMEM complete media (5.5 mM glucose, 2 mM L-glutamine, and 1 mM pyruvate) containing 1% penicillin-streptomycin and 10% heat-inactivated foetal bovine serum. Cells were incubated overnight at 37°C / 5% CO2 to allow cell attachment. On the day of the treatment, cell culture medium was removed, and the cells were washed three times with Gibco™ DMEM, no glucose, no L-glutamine, no pyruvate, no phenol red + 1% penicillin-streptomycin and 10% heat inactivated foetal bovine serum (termed `basal' culture medium). Fresh cell culture media (without pyruvate) was added to the wells. Test compounds were prepared as 10x final concentration solutions in pyruvate-free medium. Following 24-hours compound treatment (in 5% CO2,37°C cell incubator), spent medium was removed from all wells and were thoroughly washed thrice with basal cell culture medium. For washout assay condition, 100 µL of pyruvate-free media was added per well. For No Washout, 90 µL of pyruvate-free media and 10 µL of 10x final assay concentration prepared test agents (or assay media) were added per well. Recovery of cell proliferation was measured after 24-hours incubation at 37°C / 5% CO2 with either pyruvate-free media (without re-addition of the compound) or re-addition of compounds in pyruvate-free media.
To assess nucleus counts, formaldehyde was added to a final concentration of 4%. Following a further 20-minute incubation at room temperature, the medium was aspirated, the cells were washed twice with 200 µL TBS-T (1x TBS + 0.1% Tween 20) and the nuclei were stained with 50 µL of PBS containing 10% heat inactivated foetal bovine serum, 0.1% Triton-X-100 and 2 µM Hoechst dye. Following a 30-minute incubation at room temperature, protected from light, the cells were washed twice with TBS-T, and cells were counted in 100 µL PBS solution using an ImageXpress Pico system with stitched plate acquisition (4x magnification), DAPI channel (50 ms exposure, -3 digital confocal setting).
When cells grow and divide (termed proliferation), cells progress through the cell cycle, a tightly regulated process that consists of two main activities: DNA replication and mitosis/cell division. As a method of accurately quantifying cellular proliferation rate, the pyrimidine analogue, BrdU can be utilised to measure DNA replication. BrdU can be incorporated into the newly synthesized DNA in place of thymidine. Following incubation of proliferating cells with BrdU for 20 hours, labelling solution was removed thoroughly, and cells were fixed with 70 µL of fix solution for 30 min at room temperature. […] Eu-fluorescence was measured in a time-resolved manner using the PHERAstar FSX (Ex337/ Em620 nm). […]

[4] = test system: human primary myeloid cells (osteoclasts); experiment: Mitochondrial phenotype assessment in osteoclasts (electron microscopy); type: cell-based; conditions: rotenone 100 nM; Figure 3B
Method: Peripheral blood mononuclear cells were isolated from human whole blood by differential centrifugation over Ficoll-Paque PLUS (GE Healthcare Biosciences). CD14+ monocytes were purified from the freshly isolated PBMCs using the CD14+ selection kit (StemCells. UK) by positive magnetic selection according to manufacturer's instructions . Cells were differentiated to osteoclasts by adding 1×10^6 ml-1 cells in complete minimum essential medium-alpha supplemented with 10% heat inactivated fetal bovine serum (FBS, Invitrogen,UK),2mM glutamine (Invitrogen,UK) 20U ml-1 penicillin, 100ug/ml streptomycin (Sigma ALdrich, UK) along with 25ng ml-1 recombinant human M-CSF (Peprotech, UK) and 25 ng ml-1 RANKL for 6 days. On th^e 6th day, the cells were treated with test compound (final concentration 0.03-1 uM, 0,05 % DMSO) or a control, rotenone (100 nM).
Adherent cells were fixed in 2.5% glutaraldehyde in 0.1 M cacodylate buffer, pH 7.4, for 1 h, post fixed with 1% osmium tetroxide (Electron Microscopy Science), dehydrated in a graded series of ethanol, and embedded in Epon (Electron Microscopy Science). The embedded samples were sectioned by an ultramicrotome (Ultracut E, Richert-Jung, Leica Microsystem). Thin sections (90 nm thick) were collected on 300 mesh nickel grids and stained with uranyl acetate (Electron Microscopy Science) and lead citrate. […]

In the case of `C[C@@H]1CCN(C(=O)CC#N)C[C@@H]1N(C)c1ncnc2[nH]ccc12` [Tofacitinib], the “appearance of the osteoid/new bone formed” value ([1]; 10 mg/kg/day MCIM compound, 3 mg/kg/day etanercept, Figure 23, tofacitinib data not shown) is reported as “reactive and sporadic deposits”, the “Bone resorption (sum) Treatment value” ([1]; once daily for 14 days, Dose (mg/kg/day) as printed: Etanercept 3, HMC-C-01-A 3, all others 10, sum from all limbs per animal per group) is reported as 48** and the “Bone formation (sum) Treatment value” ([1]; osteoid zones, once daily for 14 days, Dose (mg/kg/day) as printed: Etanercept 3, HMC-C-01-A 3, all others 10, sum from all limbs per animal per group) is reported as 0.

In the case of `COC(=O)c1ccc2c(c1)NC(=O)/C2=C(\Nc1ccc(N(C)C(=O)CN2CCN(C)CC2)cc1)c1ccccc1` [Nintedanib], the “AT2 cell number Treatment value” ([2]; hyperplasia score, ABD900 20 q.d., two studies) is reported as 1.6 ± 0.2 and 1.1 ± 0.1 and the “AT2 cell size Treatment value” ([2]; hypertrophy score) is reported as 1.6 ± 0.2.

With `Cc1nc(-c2nc(-c3ccc(OC(F)(F)F)cc3)no2)nn1Cc1cccc(N2CCC(S(C)(=O)=O)CC2)c1` [IACS-010759] the “cell proliferation (BRdU incorporation and nucleus counts)” value [3] was “reduce cell proliferation” and the “recovery of cell proliferation after compound washout (BrdU incorporation and nucleus counts)” value [3] was “no recovery”.

In the case of `C=C(C)[C@H]1Cc2c(ccc3c2O[C@@H]2COc4cc(OC)c(OC)cc4[C@@H]2C3=O)O1` [rotenone], the mitochondrial morphology [4] is reported as “increased numbers of abnormal mitochondria which were more rounded and had condensed cristae with evidence of fragmentation”, the “cell proliferation (BRdU incorporation and nucleus counts)” value [3] is reported as “reduce cell proliferation” and the “recovery of cell proliferation after compound washout (BrdU incorporation and nucleus counts)” value [3] is reported as “no recovery”.
